Experimental data taken from patent US20220288156A1, “TREATMENT” (QUEEN MARY UNIVERSITY OF LONDON, priority 2019, published 2022).

Columns and labels:
[1] = test system: AAC model of heart failure; experiment: Cardiac blood vessel density (CD31 immunostaining) in AAC model; type: in vivo, mouse; conditions: ldCil for 3 weeks
Description: Male C57BL6 mice (Charles River) underwent AAC surgery at 4-5 weeks of age (between 20 and 22 g). Mice were anaesthetised with isoflurane, placed in a supine position on the procedure table, and an incision made along the ventral underbelly, extending from the xiphoid process of the sternum, down to the groin to reveal the abdominal muscle. The abdominal muscle was then cut the same distance along the linea alba to allow easy reattachment of the two halves. The two sides of the abdominal muscles were clipped back to reveal the abdominal gastrointestinal organs, and these were carefully manoeuvred to expose the underlying abdominal aorta. […] Hearts were halved longitudinally and either snap frozen in liquid nitrogen (for immunohistochemistry) or stored in an RNA later stabilisation solution (for RT-quantitative PCR) (ThermoFisher Scientific, Hertfordshire, UK).
For anti-CD31 (BD Bioscience) detection, 5 μm snap-frozen sections were blocked in 5% normal goat serum in PBS for 1 h, followed by incubation with anti-CD31 primary antibody (clone H-3, sc-376764, Santa Cruz, 1:100) in blocking buffer (5% normal goat serum in PBS) for 2 h at room temperature. […] To quantify cardiac blood vessel density, the number of CD31-positive blood vessels present across an entire area of abdominally-orientated cardiac tissue was counted within a field of view taken at 40× magnification. […]

[2] = test system: AngII-stimulated mouse cardiomyocytes; experiment: RNA-Seq of AngII-stimulated cardiomyocytes treated with ldCil, comparison with human heart data; type: cell-based
Protocol: Primary mouse cardiomyocytes were isolated from the whole hearts of 1-3-day old C57/BL6 wild-type mice. Hearts were dissected and removed from the thoracic cavity, mechanically minced with scissors and digested in cardiomyocyte isolation enzyme 1 (200 μl per heart) and cardiomyocyte isolation enzyme 2 (10 μl per heart) (Pierce primary cardiomyocyte isolation kit, Thermo Scientific). Digested hearts were then homogenised by gently pipetting up to 30 times with a 1 ml pipette, and the resulting single cell suspension added to complete DMEM solution (DMEM, 10% FBS, 1% Penicillin Streptomycin stock solution). After combination of all cell suspensions, the total number of viable cells were counted, and plated at approximately 1 million cells per single well of a 6 well plate. The following day, wells were washed with PBS (without calcium and magnesium), and complete cardiomyocyte growth medium added. Complete cardiomyocyte medium thereafter was replaced every other day.
Following 5 days culture at 37° C., 5% CO2, primary mouse cardiomyocytes were serum starved for 24 h in a 0.5 FBS-DMEM media. On day 6 cells were washed and refed with complete cardiomyocyte growth medium plus or minus 1 μM angiotensin II (Alfa Aesar), and this was repeated on day 7. In tandem to angiotensin II treatment, cells were either treated with vehicle or low dose Cilengitide (20 nM) (Bachem). On 8-day cardiomyocytes were lysed for RNA analysis.
Medium was removed and cells were washed 3 times in PBS. 350 μl RLT lysis buffer (Qiagen) (plus 1:100 beta-mercaptoethanol) was added to each well to disrupt and lyse the cells. Cell lysate samples were then combined with an equal volume of 70% ethanol, before RNA was extracted according to the manufacturer's instructions, before being stored at −80° C. until required. For whole hearts, less than 100 mg of tissue was lysed with 700 μl RLT lysis buffer (Qiagen) (supplemented 1:100 beta-mercaptoethanol) in a QIAshredder (Qiagen) for 10 min. Tissues were then processed as above with the RNeasy mini kit.
RNA-Seq was performed by Barts and the London Genome Centre on the Illumina NextSeq 500 platform, generating on average ˜15-17 million paired-end reads of 76 bp in length per sample. After quality check using FastQC, raw reads were mapped to the mouse genome (mm10, Genome Reference Consortium GRCm38) in the strand-specific mode using HISAT2 (65). Number of uniquely aligned reads (q>10) to the exonic region of each gene were counted using HTSeq (66) based on the GenCode annotation version M16 (Ensembl v91). Only genes that achieved at least one read count per million reads (cpm) in at least four samples (i.e., number of samples per group) were kept. Conditional quantile normalisation (cqn) was then performed accounting for gene length and GC content, and a log2 transformed reads per kilobase of transcript per million mapped reads RPKM expression matrix was subsequently generated. Differential expression analysis was performed using the ‘limma’ R package (67). Gene-set enrichment analysis (GSEA) was performed using the GSEA software (68) to identify dysregulated canonical pathways curated in the Molecular Signatures Database (MSigDB-C2-CP v6.2) (FDR q<0.1). RNA-Seq data have been deposited in Gene Expression Omnibus (GEO) under the accession number GSE127854.
The GSE57338 microarray dataset of a total of 313 individuals which included 95 ischemic patients, 82 dilated cardiomyopathy patients, and 136 individuals with non-failing hearts, was downloaded from GEO. Differential expression analysis was performed using the ‘limma’ R package comparing ischemic vs non-failing and dilated vs non-failing. GSEA was performed using the GSEA software (PMID:16199517) to identify the dysregulated canonical pathways as described above. The overlap of differentially expressed gene and pathways (p<0.05) was then examined in relation to the mouse cardiomyocyte data. […]

[3] = AngII vs AngII+ldCil, human failing vs non-failing
[4] = human idiopathic dilated cardiomyopathy vs non-failing
[5] = human ischemic heart vs non-failing

## CC(C)[C@H]1C(=O)N[C@@H](CCCN=C(N)N)C(=O)NCC(=O)N[C@@H](CC(=O)O)C(=O)N[C@H](Cc2ccccc2)C(=O)N1C [Cilengitide, c(f*VRGD)]
[1]; AAC surgery
  cardiac blood vessel density: significantly enhanced
[1]; SHAM surgery
  cardiac blood vessel density: no significant effect
[2]; 1 μM AngII plus ldCil 20 nM
  transcriptomic alterations induced by AngII: back to control treated cardiomyocyte levels
[2]; AngII plus ldCil
  PI3K and Akt signalling pathways downregulated by AngII: fold change restoration of both these pathways are most highly expressed
  TCA and oxidative stress pathways increased by AngII: restored
[2]; [3]
  downregulated genes concordant with human failing heart restored to non-failing human heart levels: 13 genes
  upregulated genes concordant with human failing heart restored to non-failing human heart levels: 8 genes
[2]; AngII+ldCil compared to control, FDR q>0.1
  AngII-induced differential expression of pathways (GSEA): no longer significant
[2]; [4]
  concordantly downregulated pathways restored to non-failing human heart profiles: 8 pathways
  concordantly upregulated pathways restored to non-failing human heart profiles: 4 pathways
[2]; [5]
  concordant downregulated pathways restored: 5 pathways
  concordant pathways restored: 6 pathways
  concordant upregulated pathways restored: 1 pathways
